BigSolDB 2.1

CC(C(=O)O)c1ccc2c(c1)CC(=O)c1ccccc1S2 (stereo not drawn)
solubility (mole fraction)
Settings | 278.15 K | 283.15 K | 288.15 K | 293.15 K | 298.15 K | 303.15 K | 308.15 K | 313.15 K | 318.15 K | 323.15 K
in 1,4-dioxane | – | – | 0.0923 | 0.103 | 0.114 | 0.127 | 0.142 | 0.157 | 0.173 | 0.19
in 2-ethoxyethanol | 0.0373 | 0.0458 | 0.0518 | 0.0596 | 0.0677 | 0.0779 | 0.0911 | 0.106 | 0.12 | 0.136
in 2-methoxyethanol | 0.0278 | 0.036 | 0.0437 | 0.0516 | 0.0619 | 0.074 | 0.0878 | 0.102 | 0.119 | 0.138
in ethanol | 0.00265 | 0.00396 | 0.00522 | 0.0071 | 0.00956 | 0.012 | 0.0166 | 0.0222 | 0.03 | 0.0418
in ethyl acetate | 0.00812 | 0.00951 | 0.0112 | 0.0131 | 0.0154 | 0.0176 | 0.0216 | 0.0256 | 0.0304 | 0.0362
